How the values were obtained:
Type in all cases: cell-based
[1] = tested on: differentiated SH-SY5Y cells; test: Neutral red uptake cytotoxicity assay, differentiated SH-SY5Y; conditions: 24 h; for Top (maximal effect): maximum cell death of fitted curve; for EC50: Homo sapiens, cell death curves 0–1500 µM, read-out: EC50 (half-maximum-effect concentration)
Experimental: SH-SY5Y cells were acquired from the American Type Culture Collection (Manassas, VA, USA). Cells were cultured in 25 cm^2 flasks using DMEM—high glucose supplemented with 10% heat-inactivated FBS, 1% MEM non-essential amino acids and 1% penicillin/streptomycin mixture, and maintained in a 5% CO2–95% air atmosphere, at 37 °C, until 80% confluence. Cells were routinely subcultured using trypsin-EDTA and, to avoid phenotypic alterations, were always used between passages 23 and 29. In all experiments, the cells were seeded at a density of 25,000 cells/cm^2. As previously described, to achieve a dopaminergic neuronal phenotype, the cells were seeded in a complete DMEM medium containing 10 μM retinoic acid and, after 3 days, 80 nM TPA was added to the cultures for another 3 days.
Neutral red uptake and resazurin reduction assays were performed after exposure of differentiated SH-SY5Y and HepG2 cells to the drugs under study. To obtain a concentration–response curve, a broad concentration range (0–2000 µM) was investigated, and cytotoxicity was evaluated 24 h after exposure in 96-well cell culture plates. As previously described, neutral red uptake assay is based on the incorporation of neutral red dye into the lysosomes of viable cells and the amount of dye incorporated represents the cells’ lysosomal functionality, and resazurin reduction assay is based on the irreversible reduction of resazurin dye to the fluorescent resorufin product by metabolically active cells.
Briefly, 24 h after being exposed to different concentrations of the compounds, differentiated SH-SY5Y cells were incubated with either neutral red (50 µg/mL) or resazurin (10 µg/mL) solutions for 90 min, at 37 °C, in a 5% CO2–95% air atmosphere. For HepG2 cells, 24 h after the exposure to the tested drugs, the cells were incubated with either neutral red (50 µg/mL) or resazurin (10 µg/mL) solutions for 45 and 60 min, respectively, at 37 °C, in a 5% CO2–95% air atmosphere.
In the neutral red uptake assay, at the end of the incubation period, the cell culture medium was removed and a solution of absolute ethyl alcohol/distilled water (1:1) with 5% acetic acid was added to extract the dye absorbed only by the viable cells. The absorbance was measured at 540 nm in a multi-well plate reader (PowerWaveX BioTek Instruments, Winooski, VT, USA). In the resazurin assay, at the end of the incubation period, the fluorescence was measured at 530 nm excitation and 590 nm emission wavelengths in a multi-well plate reader (PowerWaveX BioTek Instruments, Winooski, VT, USA).
The results were expressed as a percentage of control cells. At least four independent experiments were performed, in triplicate. For differentiated SH-SY5Y cells, the neutral red uptake assay was identified as the most sensitive assay and, therefore, used for the subsequent experiments. On the other hand, for HepG2 cells, the resazurin reduction assay was identified as the most sensitive assay and, therefore, used for the subsequent experiments.

[2] = tested on: differentiated SH-SY5Y cells; test: Intracellular total glutathione (DTNB-GSH recycling assay); conditions: 24 h
Experimental: Total GSH was quantified through the DTNB-GSH recycling assay. Briefly, GSH is oxidized by 5,5′-dithiobis (2-nitrobenzoic acid) (DTNB) producing 5-thio-2-nitrobenzoic acid (TNB) and a glutathione adduct of GSH (GS-TNB). In the presence of NADPH, GS-TNB is reduced by glutathione reductase to 2GSH (recycled). The GSH concentration in the samples is thus proportional to TNB formation, which is measurable at 415 nm.
Intracellular total glutathione (GSH) was measured through the DTNB-GSH recycling assay. […]
The acidic samples and standards (GSH standards prepared in 5% HClO4) were neutralized with ice-cold 0.76 M KHCO3 (1:1) and centrifuged (13,000× g, 10 min at 4 °C). Subsequently, 100 µL of the supernatants were transferred to a 96-well plate, followed by the addition of 65 µL of an extemporaneous reagent solution (3.96 mM DTNB and 0.68 mM NADPH prepared in a 7.5 pH phosphate buffer: 71.5 mM Na2HPO4, 71.5 mM NaH2PO4, and 0.63 mM EDTA) and the plates were incubated for 15 min in a multi-well plate reader (PowerWaveX BioTek Instruments, Winooski, VT, USA) at 30 °C. At the end of the incubation period, 40 µL of a 10 U/mL glutathione reductase (prepared in phosphate buffer) solution was added and the absorbance was then measured, for 3 min, at 415 nm, in kinetic mode to follow the TNB formation. […]

[3] = tested on: differentiated SH-SY5Y cells; test: Intracellular ATP (luciferin-luciferase bioluminescence assay); conditions: 24 h, 500 μM
Experimental: Intracellular ATP levels were determined, as previously described, through a bioluminescence reaction with luciferase, which catalyzes the formation of light from ATP and luciferin.
Intracellular adenosine triphosphate (ATP) was quantified through the bioluminescent D-luciferin-luciferase assay. The samples used for the intracellular ATP quantification were prepared as described for the “Intracellular Total Glutathione Quantification” assay. The acidic samples and standards (ATP standards prepared in 5% HClO4) were neutralized with ice-cold 0.76 M KHCO3 (1:1) and centrifuged (13,000× g, 10 min at 4 °C). Afterwards, 75 µL of the supernatants were transferred to a white opaque 96-well plate, followed by the addition of 75 µL of luciferin-luciferase solution (0.15 mM luciferin and 3 × 10^6 light unit’s luciferase/mL prepared in a 7.6 pH Tris-Glycine buffer solution: 1 mM Trizma; 10 mM MgSO4; 50 mM glycine; 0.55 mM EDTA and 1% BSA), protected from light. The samples’ bioluminescence (560 nm) was immediately measured in a multi-well plate reader (PowerWaveX BioTek Instruments, Winooski, VT, USA). The ATP content in the samples was normalized to the protein content (as previously described in “Intracellular Reduced Glutathione Quantification”) and the results were expressed as a percentage of control cells. At least four independent experiments were performed, in duplicate.

Structure (SMILES) | Bottom (baseline) [1] | Hill Slope [1] | Top (maximal effect) [1] | EC50 [1] [µM] | total GSH intracellular levels ([2]; 250 μM) | ATP intracellular levels [3] | total GSH intracellular levels ([2]; 10 μM)
COc1cc(CCN)c(OC)cc1Br [2C-B, 4-Bromo-2,5-dimethoxy-β-phenethylamine] | 1.900 | 1.746 | 93.68 | 165 | no significant alterations |  | 
COc1cc([N+](=O)[O-])c(OC)cc1CCNCc1ccccc1OC [25N-NBOMe, 4-Nitro-2-dimethoxy-N-(2-methoxybenzyl)-β-phenethylamine] | 2.841 | 5.758 | 87.38 | 125 |  |  | 
COc1cc([N+](=O)[O-])c(OC)cc1CCN [2C-N, 2,5-dimethoxy-4-nitrophenethylamine] | 6.911 | 2.691 | ≈100 | 733 |  | about 60 % of control cells | 
COc1ccccc1CNCCc1cc(OC)c(OC)c(OC)c1 [Mescaline-NBOMe, 3,4,5-Trimethoxy-N-(2-methoxybenzyl)-β-phenethylamine] | 1.218 | 2.681 | 98.57 | 406 |  |  | 
COc1cc(CCNCc2ccccc2OC)c(OC)cc1Br [25B-NBOMe, 4-Bromo-2,5-dimethoxy-N-(2-methoxybenzyl)-β-phenethylamine] | 0.0825 | 2.687 | 87.85 | 33.9 |  | completely depleted intracellular ATP levels | drastically reduced the total GSH levels
